Data published in patent publication US5242945A, “Tetronic and thiotetronic acid derivatives as phospholipase A2 inhibitors” (American Home Products Corporation, priority 1991, dated 1993).
pIC50: −log10 of the molar value.

Columns and labels:
[1] = system: AA-induced ear edema; test: arachidonic acid (AA)-induced murine ear edema assay; format: in vivo, mouse (Swiss Webster); conditions: for ED50: Mus musculus, 1 h, oral
[2] = target: T1, human platelet PLA2 (Homo sapiens, UniProt P14555); test: in vitro isolated phospholipase A2 assay, human platelet PLA2; format: biochemical; conditions: at 10 μM; + values given without explanation; read-out: % Inhibition HP (human platelet)
T1 construct: platelet acid extract PLA2; from tissue; host or cells: human platelets, semipurified acid extract
T1 sequence (P14555 21-144): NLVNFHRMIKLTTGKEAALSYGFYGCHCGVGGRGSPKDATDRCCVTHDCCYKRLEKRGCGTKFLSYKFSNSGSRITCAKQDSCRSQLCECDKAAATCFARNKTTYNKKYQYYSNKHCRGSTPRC
How it was run: (§1)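 PLA2 from semipurified human platelet acid extract or purified human synovial fluid, preincubated 30 min at room temperature with compound. ³H-arachidonate-labelled E. coli substrate then added in Tris-HCl pH 7.5, with enzyme giving about 12% hydrolysis. Reaction ran 10 min at 37° C; released arachidonic acid recovered on NH2 columns and measured by β-counting.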

[3] = system: carrageenan paw edema; test: rat carrageenan paw edema assay; format: in vivo, rat (Sprague-Dawley); conditions: 50 mg/kg peroral
Method: The compounds of the invention are further tested in the rat carrageenan paw edema assay to determine their ability to inhibit the acute inflammatory response.
140-180 g Male Sprague-Dawley rats, in groups of 6 animals are injected subcutaneously in the right paw with 0.1 mL of 1% carrageenan at zero time. Mercury plethysmographic readings (mL) of the paw are made at zero time and 3 hours later. Test compounds are suspended or dissolved in 0.5% methylcellulose and given perorally 1 hour prior to carrageenan administration.
The increase in paw volume (edema in mL) produced by the carrageenan is measured. Paw edema is calculated (3 hour volume minus zero time volume), and percent inhibition of edema is determined. Unpaired Student's t-test is used to determine statistical significance.

[4] = target: T2, human synovial fluid PLA2 (Homo sapiens, UniProt P14555); test: in vitro isolated phospholipase A2 assay, human synovial fluid PLA2; format: biochemical; conditions: for pIC50: Table IV, read-out: IC50 HSF (human synovial fluid); for inhibition at 10 µM: + values given without explanation, read-out: % Inhibition HSF (human synovial fluid)
T2 construct: Purified human synovial fluid; from tissue; host or cells: human synovial fluid
T2 sequence (P14555 21-144): T1 sequence (P14555 21-144)
How it was run: as §1

[5] = system: lipoxygenase and/or cyclooxygenase pathways of arachidonic acid metabolism; test: in vivo murine zymosan peritonitis assay; design: species or system mouse (CD-1); conditions: for ED50 LTC4: p.o.
Method: The compounds of the invention are evaluated for their ability to inhibit the lipoxygenase and/or cyclooxygenase pathways of arachidonic acid metabolism in the in vivo murine zymosan peritonitis assay.
Male CD-1 mice (8 weeks old) are placed in plastic boxes in groups of six. Animals are injected with 1 mL i.p. of either 1% zymosan in pyrogen free 0.9% saline or saline (unstimulated control). Compounds are dosed orally 1 hour prior to zymosan injection. Twenty minutes after zymosan injection, the mice are asphyxiated by CO2 inhalation and the peritoneal cavity is lavaged with 2 mL ice cold Hanks Balanced Salt Solution (HBSS) without CaCl2, MgSO4. 7H2 O and MgCl2.6H2 O. Peritoneal lavage fluid from each mouse is removed by syringe and placed in 5 mL plastic test tubes put on ice and volume is noted. Preparation of samples for evaluation by ELISA is as follows: Samples are centrifuged at 800 xg for 15 minutes; 1 mL of the supernatant is added to 8 mL ice cold methanol and kept at -70° C. overnight to precipitate protein; and samples are then centrifuged at 800 xg for 15 minutes, followed by a drying procedure in a Savant speed vac concentrator. The samples are reconstituted with 1 mL ice cold ELISA buffer and stored at -70° C. until assayed. The assay for eicosanoids (LTC4 and 6-keto-PGF1α) is performed according to conventional ELISA procedures.
Compounds to be tested orally are suspended in 0.5% Tween 80. Compounds to be tested intraperitoneally are suspended in 0.5% methylcellulose in 0.9% saline.
The total metabolite level in lavage fluid/mouse is calculated and the significance is determined by a one-way analysis of variance with LSD comparisons to control (p≤0.05). Drug effects are expressed as a percent change from control values.

[6] = system: lipoxygenase (LTB4 or 5HETE synthesis); test: inhibition of LTB4 and 5-HETE synthesis by rat glycogen-elicited polymorphonuclear leukocytes; format: cell-based, rat (female Wistar); conditions: Leukocyte; at 10 μM; rat PMN; + with * denotes potentiation; read-out: % Inhibition LTB4
Text: This is especially true with respect to 5,12-diHETE, which is also denoted as LTB4 [see Ford-Hitchinson, J. Roy. Soc. Med., 74, 831 (1981)]. Compounds which inhibit the PLA2 -mediated release of arachidonic acid thereby effectively prevent the oxidation of arachidonic acid to the various leukotriene products via the lipoxygenase cascade. Accordingly, the specificity of action of PLA2 inhibitors can be determined by the activity of test compounds in this assay, which measures the ability of compounds to inhibit the synthesis of LTB4 and 5-HETE by rat glycogen-elicited polymorphonuclear leukocytes (PMN) in the presence of exogenous substrate.
(§2) Rat polymorphonuclear leukocytes (PMNs) are obtained from female Wistar rats (150-200 g) which receive an injection of 6% glycogen (10 ml i.p.). Rats are sacrificed 18-24 hours post injection by CO2 asphyxiation and the elicited cells are harvested by peritoneal lavage using physiological saline (0.9% NaCl). The exudate is centrifuged at 400 xg for 10 minutes. The supernatant fluid is discarded and the cell pellet is resuspended to a concentration of 2.0×10^7 cells/mL in HBSS containing Ca^++ and Mg^++ and 10 μM L-cysteine.
(§3) To 1 mL aliquots of cell suspension, test drugs or vehicle are added, then preincubated at 37° C. for 10 minutes. A23187 (1 μM), [^3 H]-AA (3.0 μCi/mL) and unlabeled AA (1 μM) are then added and the samples are further incubated for 10 minutes. The reaction is terminated by centrifugation and pelleting cells. Supernatants are then analyzed by HPLC analysis on a 15 cm×4.6 mm ID supelcosil LC-18 (Supelco)(3M) column, using a two solvent system at a flow rate of 1.4 mL total flow as follows:
Injections: 140 μL of each supernatant is injected directly onto column and ^3 H arachidonic acid metabolites are monitored using an on-line radioactivity detector (Ramona, IN/US, Fairfield, N.J.).
Co-chromatography with standard [^3 H] leukotriene B4 (LTB4) in medium of stimulated PMN exposed to drug is compared to that found in medium of stimulated cells exposed to no drug, generating percent inhibition.
Results are expressed as percent inhibition at a given compound dose or as an IC50 value.

[7] = system: purified PLA2, from the diamond back cotton mouth snake (A. piscivorus piscivorus); test: in vivo PLA2 murine paw edema assay; design: species or system A. piscivorus piscivorus PLA2 in CD-1 mice
Method: The ability of the compounds of the invention to inhibit paw edema induced by the exogenous administration of PLA2 is measured in the in vivo PLA2 murine paw edema assay.
Non-fasted, male CD-1 mice (8 weeks old; 31-36 grams) are placed in plastic boxes in groups of six. The right hind paw volume is measured using mercury plethysmography (zero time). Compounds are dosed orally (0.5 mL of 0.5% Tween-80) 1 or 3 hours prior to PLA2 injection or intravenously (0.2 mL in 0.3% dimethylsulfoxide/saline) 3 minutes prior to PLA2 injection. A solution of purified PLA2, from the diamond back cotton mouth snake (A. piscivorus piscivorus) is prepared in saline at a concentration of 6 μg/mL. Fifty (50) μL (0.3 μg) of this PLA2 solution is injected subcutaneously into the right hind paw with a plastic 1 mL plastic syringe (27 gauge, 1" needle). Paw volume of the injected paw is measured again at 10 minutes, 30 minutes and 60 minutes after PLA2 injection. Animals are euthanized with CO2 at the completion of the study.
The paw edema is calculated by subtracting the zero time volume from the volume recorded at each time period. Mean paw edema for each treatment group is then calculated and expressed as (μL±S.E.). Drug effects are expressed as a percent change from control (vehicle) values. Statistical significance is determined by a one-way analysis of variance with LSD comparison to control (p<0.05). ED50 's are determined using […].

[8] = system: cyclooxygenase (PGE2 or TxB2 synthesis); test: inhibition of synthesis of cyclooxygenase products PGE2 and TxB2 by rat polymorphonuclear leukocytes; format: cell-based, rat (female Wistar); conditions: Leukocyte; at 10 μM; rat PMN; + with * denotes potentiation; read-out: % Inhibition TxB2
Method: as §2, §3
In this assay, the procedure of Example 58 is carried out as described. However, in order to determine cyclooxygenase activity, the samples are co-chromatographed with authentic reference [^3 H]-TxB2 or [^3 H]-PGE2.
The results are calculated as in Example 58 and presented below: […]

[9] = system: TPA-induced ear edema; test: 12-o-tetradecanoylphorbol acetate (TPA)-induced murine ear edema assay; format: in vivo, mouse (Swiss Webster); conditions: oral, TPA-induced
Method: The ability of the compounds of the invention to inhibit inflammatory responses is examined in the in vivo arachidonic acid (AA)/12-o-tetradecanoylphorbol acetate (TPA)-induced murine ear edema assay.
Swiss Webster female mice (Buckshire), approximately 8 weeks old are placed into plastic boxes in groups of six. Eight groups of mice receive AA topically on the right ear, and another 8 groups receive TPA topically on the right ear. AA and TPA are dissolved in acetone at concentrations of 100 mg/ml and 100 μg/ml respectively. The phlogistics are applied to the right ear by the means of an automatic pipet. Volumes of 10 μl are applied to the inner and outer surfaces of the ear. Each mouse receives either 2 mg/ear AA or 2 μg/ear TPA. The left ear (control) receives acetone delivered in the same manner. Topical and subcutaneous dosing regimens are as follows 1) drugs are given 30 minutes prior to AA treatment and 2) drugs are given 30 minutes after treatment with TPA.
Measurements are taken with Oditest calipers, 0-10 mm with 0.01 graduations. The right and left ears are measured after 1 hr AA-induced inflammation and 4 hours after TPA-induced inflammation.
The difference between right and left ear thickness is calculated and the significance is determined by a one way analysis of variance with Dunnett's comparisons to control (P=0.05). Drug effects are expressed as a percent change from control values: [formula]

O=C1CCN(c2ccccc2)N1 [Phenidone]
ED50 [1]: 85 mg/kg

COc1ccc(/C=C/C(=O)C2=C(O)COC2=O)cc1 [Example 6, (E)-4-Hydroxy-3-(3-(4-methoxyphenyl)-1-oxo-2-propenyl)-2 (5H)-furanone]
inhibition at 10 µM [2]: 0%
% Inhibition [3]: 31%
pIC50 [4]: 5.06
inhibition at 10 µM [4]: 59%

CC(C)Cc1ccc(C(C)C(=O)O)cc1 (stereo not shown) [Ibuprofen]
ED50 LTC4 [5]: Not Active

O=C(/C=C/c1ccc(Cl)cc1)C1=C(O)COC1=O [Example 7, (E)-4-Hydroxy-3-(3-(4-chlorophenyl)-1-oxo-2-propenyl)-2(5H)-furanone]
inhibition at 10 µM [2]: 0%
inhibition at 10 µM [6]: 13%
% Change in Edema 10 min ([7]; 10 mg/kg i.v.): -19%
% Change in Edema 30 min ([7]; 10 mg/kg i.v.): +39%
% Change in Edema 60 min ([7]; 10 mg/kg i.v.): +15%
% Change in Edema 10 min ([7]; 100 mg/kg p.o.): -24%
% Change in Edema 30 min ([7]; 100 mg/kg p.o.): -4%
% Change in Edema 60 min ([7]; 100 mg/kg p.o.): -9%
inhibition at 10 µM [8]: 18%
% Inhibition [3]: 47%
pIC50 [4]: 5.74
inhibition at 10 µM [4]: 98%

O=C(/C=C/c1cccc([N+](=O)[O-])c1)C1=C(O)COC1=O [Example 12, (E)-4-Hydroxy-3-(3-(3-nitrophenyl)-1-oxo-2-propenyl)-2 (5H)-furanone]
inhibition at 10 µM [2]: 11%
inhibition at 10 µM [6]: 5%
% Change in Edema 10 min ([7]; 10 mg/kg i.v.): -11%
% Change in Edema 30 min ([7]; 10 mg/kg i.v.): -19%
% Change in Edema 60 min ([7]; 10 mg/kg i.v.): +24%
% Change in Edema 10 min ([7]; 100 mg/kg p.o.): -27%
% Change in Edema 30 min ([7]; 100 mg/kg p.o.): -33%
% Change in Edema 60 min ([7]; 100 mg/kg p.o.): -2%
inhibition at 10 µM [8]: 9%
% Inhibition [3]: 30%
pIC50 [4]: 5.70
inhibition at 10 µM [4]: 82%

COc1ccc2c(c1)c(CC(=O)O)c(C)n2C(=O)c1ccc(Cl)cc1 [indomethacin]
% Inhibition LTC4 ([5]; 10 mg/kg p.o.): +25%
ED50 LTC4 [5]: Not Active
Oral ED50 (AA) [1]: inactive at 10
Oral ED50 (TPA) [9]: inactive at 10

NC1=NN(c2cccc(C(F)(F)F)c2)CC1 [BW 755c, reference compound]
ED50 [1]: 65 mg/kg
ED50 at +10 min. ([7]; p.o., at +10 min): 50 mg/kg
ED50 ([9]; Mus musculus, 4 h, read-out: Oral ED50 (TPA)): 88 mg/kg
